Measured values taken from PMC2819003 (Angewandte Chemie (International ed. in English), 2010).

Target: T1, DPPS; decaprenyl diphosphate synthase (Homo sapiens, UniProt Q5T2R2)
T1 sequence (Q5T2R2 1-415): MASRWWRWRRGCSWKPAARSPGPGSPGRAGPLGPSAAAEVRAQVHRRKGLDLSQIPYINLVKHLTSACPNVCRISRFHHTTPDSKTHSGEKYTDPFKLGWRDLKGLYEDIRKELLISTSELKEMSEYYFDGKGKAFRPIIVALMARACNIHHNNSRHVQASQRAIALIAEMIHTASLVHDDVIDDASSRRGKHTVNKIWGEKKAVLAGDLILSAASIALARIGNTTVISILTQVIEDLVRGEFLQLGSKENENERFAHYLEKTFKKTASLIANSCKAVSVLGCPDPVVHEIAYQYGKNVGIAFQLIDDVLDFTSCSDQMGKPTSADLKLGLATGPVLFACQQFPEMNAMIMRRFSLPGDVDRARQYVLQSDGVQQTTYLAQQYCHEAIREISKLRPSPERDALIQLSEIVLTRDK
T1 sequence (Q86YH6 1-399 partner): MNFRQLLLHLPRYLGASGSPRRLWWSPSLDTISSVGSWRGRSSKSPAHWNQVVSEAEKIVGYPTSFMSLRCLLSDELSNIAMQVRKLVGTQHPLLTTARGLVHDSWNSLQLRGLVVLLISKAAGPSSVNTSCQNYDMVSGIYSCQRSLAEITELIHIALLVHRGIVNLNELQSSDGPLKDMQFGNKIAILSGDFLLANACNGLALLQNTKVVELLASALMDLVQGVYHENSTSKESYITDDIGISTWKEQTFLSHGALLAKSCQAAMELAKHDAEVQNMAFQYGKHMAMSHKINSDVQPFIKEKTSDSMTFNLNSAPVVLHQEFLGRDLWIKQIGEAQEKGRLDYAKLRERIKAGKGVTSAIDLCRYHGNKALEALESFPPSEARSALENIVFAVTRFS
Test: DPPS inhibition assay
Format: biochemical

O=P(O)(O)C(O)(Cn1ccnc1)P(=O)(O)O [zoledronate]
IC50: 5.5 µM
